This test concerns the target T1, Dimer of Gag-Pol polyprotein [501-599,Q508K,L534I,L564I,C568A,C596A] (Human immunodeficiency virus 1, UniProt P03367, C568A/C596A/L534I/L564I/Q508K).
T1 construct: 501-599
Nature of the test: Protease Inhibition Assay. The conditions noted are these: pH 6.4; 25 °C. The procedure: The Ki values were determined using fluorogenic substrate, 2-(aminobenzoyl)-Thr-Ile-Nle-Phe(p-NO2)-Gln-ArgNH2. A standard curve relating changes in fluorescent intensity to changes in concentration of product was used to convert fluorescent changes into molar velocities. The amount of cleavage was determined by HPLC.

Molecules are shown by their SMILES.

The text below walks through data of BindingDB's records for doi:10.1021/jm050019i (University of Illinois At Chicago, 2005).

As usually defined, the Ki is a dissociation constant, usually derived from enzyme kinetics or from competition with a known ligand. A high value points to lower affinity.

Consider `COc1ccc(S(=O)(=O)N(CC(C)C)C[C@@H](O)[C@@H]2CCCC/C=C\COc3c(O)cccc3C(=O)N2)cc1` [(2R)-2-hydroxy-2-[(9S)-15-hydroxy-11-oxo-2,5,6,7,8,9,10,11-octahydro-1,10-benzoxazacyclotridecin-9-yl]-N-(4-methoxyphenyl)-N-(2-methylpropyl)ethane-1-sulfonamido], for which the Ki was determined as 2 nM.
